From US4517181A, “Mammalian PGRF” (The Salk Institute for Biological Studies, priority 1982, dated 1985)

Test system: cells of rat pituitary glands
Test: in vitro GH release, rat pituitary cell monolayer culture bioassay (ir GH by radioimmunoassay)
Format: cell-based
Details: for GH-releasing activity: peptides isolated from human islet cell tumor; for biological potency (additional testing): compared with PGRF (1-40)
Protocol: To determine the effectiveness of the peptides to promote the release of growth hormone, in vitro assays are carried out using synthetic PGRF (1-40) of Example II in side-by-side comparison with equimolar concentrations of the extracted and purified native PGRF (1-40) and of a GRF Reference Standard having a known effectiveness to promote the release of growth hormone from pituitary cells. The GRF Reference standard is described and defined in Brazeau, et al., Endocrinology, Vol. 110, A538(1982) and is an amount of a preparation of rat hypothalamic origin that produces a half-maximal response in terms of GH release in a pituitary cell monolayer bioassay. Cultures are used which include cells of rat pituitary glands removed some four to five days previously. Both cultures of a defined standard medium and cultures which are considered optimal for the secretion of growth hormone are used for the comparative testing, in the general manner described in Brazeau, et al. Regulatory Peptides, 1, 255, 1981. Incubation with the substance to be tested is carried out for 3 to 4 hours, and aliquots of the culture medium are removed and processed to measure their contents in inmunoreactive GH(ir GH) by a well-characterized radioimmunoassay.
The in vitro assays described in Example VII are repeated using Native PGRF(1-40) and Native PGRF(1-44) and the results are set forth in following Table III: […]

Structure (SMILES)	GH secretion in vitro % of controls (Table III, 6.3 femtomoles)	GH secretion in vitro % of controls (Table III, 12.5 femtomoles)	GH secretion in vitro % of controls (Table III, 25.0 femtomoles)	GH secretion in vitro % of controls (Table III, 50.0 femtomoles)	GH secretion in vitro % of controls (Table III, 100.0 femtomoles)	GH secretion in vitro % of controls (Table III, 200.0 femtomoles)	GH secretion in vitro % of controls (Table III, 400.0 femtomoles)	GH-releasing activity	biological potency (additional testing)	other results
CC[C@H](C)[C@H](NC(=O)[C@H](C)NC(=O)[C@H](CC(=O)O)NC(=O)[C@H](C)NC(=O)[C@@H](N)Cc1ccc(O)cc1)C(=O)N[C@@H](Cc1ccccc1)C(=O)N[C@H](C(=O)N[C@@H](CC(N)=O)C(=O)N[C@@H](CO)C(=O)N[C@@H](Cc1ccc(O)cc1)C(=O)N[C@@H](CCCNC(=N)N)C(=O)N[C@@H](CCCCN)C(=O)N[C@H](C(=O)N[C@@H](CC(C)C)C(=O)NCC(=O)N[C@@H](CCC(N)=O)C(=O)N[C@@H](CC(C)C)C(=O)N[C@@H](CO)C(=O)N[C@@H](C)C(=O)N[C@@H](CCCNC(=N)N)C(=O)N[C@@H](CCCCN)C(=O)N[C@@H](CC(C)C)C(=O)N[C@@H](CC(C)C)C(=O)N[C@@H](CCC(N)=O)C(=O)N[C@@H](CC(=O)O)C(=O)N[C@H](C(=O)N[C@@H](CCSC)C(=O)N[C@@H](CO)C(=O)N[C@@H](CCCNC(=N)N)C(=O)N[C@@H](CCC(N)=O)C(=O)N[C@@H](CCC(N)=O)C(=O)NCC(=O)N[C@@H](CCC(=O)O)C(=O)N[C@@H](CO)C(=O)N[C@@H](CC(N)=O)C(=O)N[C@@H](CCC(N)=O)C(=O)N[C@@H](CCC(=O)O)C(=O)N[C@@H](CCCNC(=N)N)C(=O)NCC(=O)N[C@@H](C)C(=O)O)[C@@H](C)CC)C(C)C)[C@@H](C)O [Native PGRF (1-40)]	198 ± 5.9 % of controls	270 ± 2.4 % of controls	348 ± 3.4 % of controls	466 ± 0.9 % of controls	570 ± 17 % of controls	579 ± 2.1 % of controls	588 ± 10 % of controls	exhibit GH-releasing activity	–	GH secretion in vitro % of controls (Table I, 12.5 femtomoles): 234 ± 17 % of controls; GH secretion in vitro % of controls (Table I, 25 fmoles): 351 ± 7 % of controls; GH secretion in vitro % of controls (Table I, 50 fmoles): 528 ± 16 % of controls; GH secretion in vitro % of controls (Table I, 100 fmoles): 720 ± 32 % of controls; GH secretion in vitro % of controls (Table I, 200 fmoles): 748 ± 7 % of controls
CC[C@H](C)[C@H](NC(=O)[C@H](C)NC(=O)[C@H](CC(=O)O)NC(=O)[C@H](C)NC(=O)[C@@H](N)Cc1ccc(O)cc1)C(=O)N[C@@H](Cc1ccccc1)C(=O)N[C@H](C(=O)N[C@@H](CC(N)=O)C(=O)N[C@@H](CO)C(=O)N[C@@H](Cc1ccc(O)cc1)C(=O)N[C@@H](CCCNC(=N)N)C(=O)N[C@@H](CCCCN)C(=O)N[C@H](C(=O)N[C@@H](CC(C)C)C(=O)NCC(=O)N[C@@H](CCC(N)=O)C(=O)N[C@@H](CC(C)C)C(=O)N[C@@H](CO)C(=O)N[C@@H](C)C(=O)N[C@@H](CCCNC(=N)N)C(=O)N[C@@H](CCCCN)C(=O)N[C@@H](CC(C)C)C(=O)N[C@@H](CC(C)C)C(=O)N[C@@H](CCC(N)=O)C(=O)N[C@@H](CC(=O)O)C(=O)N[C@H](C(=O)N[C@@H](CCSC)C(=O)N[C@@H](CO)C(=O)N[C@@H](CCCNC(=N)N)C(=O)N[C@@H](CCC(N)=O)C(=O)N[C@@H](CCC(N)=O)C(=O)NCC(=O)N[C@@H](CCC(=O)O)C(=O)N[C@@H](CO)C(=O)N[C@@H](CC(N)=O)C(=O)N[C@@H](CCC(N)=O)C(=O)N[C@@H](CCC(=O)O)C(=O)O)[C@@H](C)CC)C(C)C)[C@@H](C)O [PGRF(1-37) free acid]	–	–	–	–	–	–	–	exhibit GH-releasing activity	–	–
CC[C@H](C)[C@H](NC(=O)[C@H](C)NC(=O)[C@H](CC(=O)O)NC(=O)[C@H](C)NC(=O)[C@@H](N)Cc1ccc(O)cc1)C(=O)N[C@@H](Cc1ccccc1)C(=O)N[C@H](C(=O)N[C@@H](CC(N)=O)C(=O)N[C@@H](CO)C(=O)N[C@@H](Cc1ccc(O)cc1)C(=O)N[C@@H](CCCNC(=N)N)C(=O)N[C@@H](CCCCN)C(=O)N[C@H](C(=O)N[C@@H](CC(C)C)C(=O)NCC(=O)N[C@@H](CCC(N)=O)C(=O)N[C@@H](CC(C)C)C(=O)N[C@@H](CO)C(=O)N[C@@H](C)C(=O)N[C@@H](CCCNC(=N)N)C(=O)N[C@@H](CCCCN)C(=O)N[C@@H](CC(C)C)C(=O)N[C@@H](CC(C)C)C(=O)N[C@@H](CCC(N)=O)C(=O)N[C@@H](CC(=O)O)C(=O)N[C@H](C(=O)N[C@@H](CCSC)C(=O)N[C@@H](CO)C(=O)N[C@@H](CCCNC(=N)N)C(=O)N[C@@H](CCC(N)=O)C(=O)N[C@@H](CCC(N)=O)C(=O)NCC(=O)N[C@@H](CCC(=O)O)C(=O)N[C@@H](CO)C(=O)N[C@@H](CC(N)=O)C(=O)N[C@@H](CCC(N)=O)C(=O)N[C@@H](CCC(=O)O)C(=O)N[C@@H](CCCNC(=N)N)C(=O)NCC(=O)N[C@@H](C)C(=O)N[C@@H](CCCNC(=N)N)C(=O)N[C@@H](C)C(=O)N[C@@H](CCCNC(=N)N)C(=O)N[C@@H](CC(C)C)C(N)=O)[C@@H](C)CC)C(C)C)[C@@H](C)O [Native PGRF (1-44)]	289 ± 10 % of controls	391 ± 8 % of controls	479 ± 8 % of controls	561 ± 14 % of controls	599 ± 7 % of controls	606 ± 6 % of controls	610 ± 5 % of controls	–	–	Potency in terms of PGRF(1-40) (confidence limits of 1.616 and 3.131, computer calculated (BIOPROG)): 2.2261 ×PGRF(1-40); Potency in terms of GRF Reference Standard (per 1 femtomole, confidence limits of 0.122 and 0.239, computer calculated (BIOPROG)): 0.1696 unit
CC[C@H](C)[C@H](NC(=O)[C@H](C)NC(=O)[C@H](CC(=O)O)NC(=O)[C@H](C)NC(=O)[C@@H](N)Cc1ccc(O)cc1)C(=O)N[C@@H](Cc1ccccc1)C(=O)N[C@H](C(=O)N[C@@H](CC(N)=O)C(=O)N[C@@H](CO)C(=O)N[C@@H](Cc1ccc(O)cc1)C(=O)N[C@@H](CCCNC(=N)N)C(=O)N[C@@H](CCCCN)C(=O)N[C@H](C(=O)N[C@@H](CC(C)C)C(=O)NCC(=O)N[C@@H](CCC(N)=O)C(=O)N[C@@H](CC(C)C)C(=O)N[C@@H](CO)C(=O)N[C@@H](C)C(=O)N[C@@H](CCCNC(=N)N)C(=O)N[C@@H](CCCCN)C(=O)N[C@@H](CC(C)C)C(=O)N[C@@H](CC(C)C)C(=O)N[C@@H](CCC(N)=O)C(=O)N[C@@H](CC(=O)O)C(=O)N[C@H](C(=O)N[C@@H](CCSC)C(=O)N[C@@H](CO)C(=O)N[C@@H](CCCNC(=N)N)C(=O)N[C@@H](CCC(N)=O)C(=O)N[C@@H](CCC(N)=O)C(=O)NCC(=O)N[C@@H](CCC(=O)O)C(=O)N[C@@H](C)C(=O)N[C@@H](CC(N)=O)C(=O)N[C@@H](CCC(N)=O)C(=O)N[C@@H](CCC(=O)O)C(=O)N[C@@H](CO)C(=O)NCC(=O)N[C@@H](CCCNC(=N)N)C(=O)O)[C@@H](C)CC)C(C)C)[C@@H](C)O [Example IV]	–	–	–	–	–	–	–	–	substantially the same biological potency as the native PGRF (1-40)	–
CC[C@H](C)[C@H](NC(=O)[C@H](C)NC(=O)[C@H](CC(=O)O)NC(=O)[C@H](C)NC(=O)[C@@H](N)Cc1ccc(O)cc1)C(=O)N[C@@H](Cc1ccccc1)C(=O)N[C@H](C(=O)N[C@@H](CC(N)=O)C(=O)N[C@@H](CO)C(=O)N[C@@H](Cc1ccc(O)cc1)C(=O)N[C@@H](CCCNC(=N)N)C(=O)N[C@@H](CCCCN)C(=O)N[C@H](C(=O)N[C@@H](CC(C)C)C(=O)NCC(=O)N[C@@H](CCC(N)=O)C(=O)N[C@@H](CC(C)C)C(=O)N[C@@H](CO)C(=O)N[C@@H](C)C(=O)N[C@@H](CCCNC(=N)N)C(=O)N[C@@H](CCCCN)C(=O)N[C@@H](CC(C)C)C(=O)N[C@@H](CC(C)C)C(=O)N[C@@H](CCC(N)=O)C(=O)N[C@@H](CC(=O)O)C(=O)N[C@H](C(=O)N[C@@H](CCSC)C(=O)N[C@@H](CO)C(=O)N[C@@H](CCCNC(=N)N)C(=O)N[C@@H](CCC(N)=O)C(=O)N[C@@H](CCC(N)=O)C(=O)NCC(=O)N[C@@H](CCC(=O)O)C(=O)N[C@@H](CO)C(=O)N[C@@H](CC(N)=O)C(=O)N[C@@H](CCC(N)=O)C(=O)N[C@@H](CCC(=O)O)C(=O)O)[C@@H](C)CC)C(C)C)[C@@H](C)O [Example VI, PGRF (1-37)-free acid]	–	–	–	–	–	–	–	–	very substantial biological potency	–
CC[C@H](C)[C@H](NC(=O)[C@H](C)NC(=O)[C@H](CC(=O)O)NC(=O)[C@H](C)NC(=O)[C@@H](N)Cc1ccc(O)cc1)C(=O)N[C@@H](Cc1ccccc1)C(=O)N[C@H](C(=O)N[C@@H](CC(N)=O)C(=O)N[C@@H](CO)C(=O)N[C@@H](Cc1ccc(O)cc1)C(=O)N[C@@H](CCCNC(=N)N)C(=O)N[C@@H](CCCCN)C(=O)N[C@H](C(=O)N[C@@H](CC(C)C)C(=O)NCC(=O)N[C@@H](CCC(N)=O)C(=O)N[C@@H](CC(C)C)C(=O)N[C@@H](CO)C(=O)N[C@@H](C)C(=O)N[C@@H](CCCNC(=N)N)C(=O)N[C@@H](CCCCN)C(=O)N[C@@H](CC(C)C)C(=O)N[C@@H](CC(C)C)C(=O)N[C@@H](CCC(N)=O)C(=O)N[C@@H](CC(=O)O)C(=O)N[C@H](C(=O)N[C@@H](CCSC)C(=O)N[C@@H](CO)C(=O)N[C@@H](CCCNC(=N)N)C(=O)N[C@@H](CCC(N)=O)C(=O)N[C@@H](CCC(N)=O)C(=O)NCC(=O)N[C@@H](CCC(=O)O)C(=O)N[C@@H](CO)C(=O)N[C@@H](CC(N)=O)C(=O)N[C@@H](CCC(N)=O)C(=O)N[C@@H](CCC(=O)O)C(=O)N[C@@H](CCCNC(=N)N)C(=O)NCC(=O)N[C@@H](C)C(N)=O)[C@@H](C)CC)C(C)C)[C@@H](C)O [Example V, PGRF (1-40)-amide]	–	–	–	–	–	–	–	–	substantially twice the biological potency of the synthetic peptide tested in Example VII	–
